Experimental data taken from PubChem BioAssay (NCI).
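A five-concentration, 48-hour dose response in 96-well plates underlies each endpoint, interpolated linearly between surrounding concentrations. At the GI50, growth is halved. TGI: total growth inhibition.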

Columns and labels:
Assay in all cases: inhibition of tumour cell growth, NCI panel, 48 h
786-0 renal = tested on: 786-0 renal
HCT-116 colon = tested on: HCT-116 colon
HL-60(TB) leukemia = tested on: HL-60(TB) leukemia
K-562 leukemia = tested on: K-562 leukemia
KM12 colon = tested on: KM12 colon
LOX IMVI melanoma = tested on: LOX IMVI melanoma
MALME-3M melanoma = tested on: MALME-3M melanoma
SN12C renal = tested on: SN12C renal
U251 CNS = tested on: U251 CNS
T-47D breast = tested on: T-47D breast

## CCCCOC(=O)NC(=O)c1cn(CCSCCOC(=O)NCCCCCCNC(=O)OCCSCCn2cc(C(=O)NC(=O)OCCCC)c(=O)[nH]c2=O)c(=O)[nH]c1=O
786-0 renal
  TGI: > 100 µM
HCT-116 colon
  TGI: > 100 µM
HL-60(TB) leukemia
  TGI: > 100 µM
K-562 leukemia
  TGI: > 100 µM
KM12 colon
  TGI: > 100 µM
LOX IMVI melanoma
  TGI: > 100 µM
MALME-3M melanoma
  TGI: 76.6 µM
SN12C renal
  TGI: > 100 µM
U251 CNS
  TGI: 74.1 µM

## COc1cc(-c2nc3sc4c(c3c(=O)[nH]2)CCCCCC4)cc(OC)c1OC
786-0 renal
  GI50: 1.46 µM
  TGI: 23.2 µM
HCT-116 colon
  GI50: 1.21 µM
  TGI: 5.72 µM
HL-60(TB) leukemia
  GI50: 1.36 µM
  TGI: 13 µM
K-562 leukemia
  GI50: 0.263 µM
  TGI: > 33.2 µM
KM12 colon
  GI50: 1.21 µM
  TGI: > 33.2 µM
LOX IMVI melanoma
  GI50: 1.42 µM
  TGI: > 33.2 µM
MALME-3M melanoma
  GI50: 4.32 µM
  TGI: 20.5 µM
SN12C renal
  GI50: 2.14 µM
  TGI: > 33.2 µM
T-47D breast
  GI50: 1.4 µM
  TGI: > 33.2 µM

## Cc1c(C)[n+](=O)c(C)c(C)n1[O-]
786-0 renal
  GI50: > 100 µM
  TGI: > 100 µM
HCT-116 colon
  GI50: > 100 µM
  TGI: > 100 µM
K-562 leukemia
  GI50: > 100 µM
  TGI: > 100 µM
KM12 colon
  GI50: > 100 µM
  TGI: > 100 µM
LOX IMVI melanoma
  GI50: > 100 µM
  TGI: > 100 µM
MALME-3M melanoma
  GI50: > 100 µM
  TGI: > 100 µM
SN12C renal
  GI50: > 100 µM
  TGI: > 100 µM
T-47D breast
  GI50: > 100 µM
  TGI: > 100 µM
U251 CNS
  GI50: > 100 µM
  TGI: > 100 µM

## Fc1ccc(C2SCc3nc4ccccc4n32)cc1 (centres undefined)
786-0 renal
  TGI: > 100 µM
HCT-116 colon
  TGI: > 100 µM
HL-60(TB) leukemia
  TGI: 71.8 µM
K-562 leukemia
  TGI: > 100 µM
KM12 colon
  TGI: > 100 µM
LOX IMVI melanoma
  TGI: > 100 µM
MALME-3M melanoma
  TGI: 73.1 µM
SN12C renal
  TGI: > 100 µM
U251 CNS
  TGI: > 100 µM

## CCN(c1ccc(Br)cc1)c1c(Br)c(=O)nc2ccccn12
786-0 renal
  TGI: > 100 µM
HCT-116 colon
  TGI: > 100 µM
K-562 leukemia
  TGI: > 100 µM
KM12 colon
  TGI: > 100 µM
MALME-3M melanoma
  TGI: > 100 µM
SN12C renal
  TGI: > 100 µM
U251 CNS
  TGI: > 100 µM

## O=C(OCC1CO1)c1cccs1 (centres undefined)
786-0 renal
  TGI: > 100 µM
HL-60(TB) leukemia
  TGI: > 100 µM
K-562 leukemia
  TGI: > 100 µM
KM12 colon
  TGI: > 100 µM
LOX IMVI melanoma
  TGI: > 100 µM
MALME-3M melanoma
  TGI: > 100 µM
SN12C renal
  TGI: > 100 µM

## COc1ccc(-c2ccc(-c3ccc(-c4ccc(C(=N)N)cc4)s3)s2)cc1OC
786-0 renal
  GI50: 18.4 µM
  TGI: 49.7 µM
HL-60(TB) leukemia
  GI50: 7.47 µM
  TGI: 28.1 µM
K-562 leukemia
  GI50: 1.9 µM
  TGI: 5.47 µM
KM12 colon
  GI50: 0.749 µM
  TGI: 2.16 µM
MALME-3M melanoma
  GI50: 13 µM
  TGI: 49.6 µM
SN12C renal
  GI50: 3.6 µM
  TGI: 21.8 µM
T-47D breast
  GI50: 3.09 µM
  TGI: 31.8 µM

## C1OC1CO[C@@H]1CO[C@H]2[C@@H]1OC[C@H]2OCC1CO1 (some centres undefined)
786-0 renal
  TGI: > 100 µM
HCT-116 colon
  TGI: > 100 µM
HL-60(TB) leukemia
  TGI: > 100 µM
K-562 leukemia
  TGI: > 100 µM
KM12 colon
  TGI: > 100 µM
LOX IMVI melanoma
  TGI: > 100 µM
MALME-3M melanoma
  TGI: > 100 µM
SN12C renal
  TGI: > 100 µM
U251 CNS
  TGI: > 100 µM

## CN1CC(C(=O)C2C(=O)c3ccccc3C2=O)C(=O)C(=O)C(C(=O)C2C(=O)c3ccccc3C2=O)C1 (centres undefined)
786-0 renal
  TGI: > 100 µM
HCT-116 colon
  TGI: > 100 µM
HL-60(TB) leukemia
  TGI: > 100 µM
K-562 leukemia
  TGI: > 100 µM
KM12 colon
  TGI: > 100 µM
LOX IMVI melanoma
  TGI: > 100 µM
MALME-3M melanoma
  TGI: > 100 µM
SN12C renal
  TGI: > 100 µM
U251 CNS
  TGI: > 100 µM

## CCN(CCCl)CCCNc1c2ccccc2nc2ccc(OC)cc12
786-0 renal
  GI50: 102 µM
HCT-116 colon
  TGI: 1.16 µM
HL-60(TB) leukemia
  GI50: 175 µM
K-562 leukemia
  GI50: 116 µM
KM12 colon
  GI50: 268 µM
LOX IMVI melanoma
  TGI: 0.669 µM
MALME-3M melanoma
  GI50: 754 µM
SN12C renal
  GI50: 274 µM
U251 CNS
  GI50: 387 µM

## C=C(c1ccc(C(=O)N(C)c2ccccc2N)cc1)C(C)N1C(=O)[C@H]2CCCN2C(=O)c2ccccc21 (some centres undefined)
786-0 renal
  GI50: 57.6 µM
  TGI: > 100 µM
HCT-116 colon
  GI50: 19.8 µM
  TGI: > 100 µM
HL-60(TB) leukemia
  GI50: 20.2 µM
  TGI: 80.2 µM
K-562 leukemia
  GI50: 19.3 µM
  TGI: > 100 µM
KM12 colon
  GI50: > 100 µM
  TGI: > 100 µM
LOX IMVI melanoma
  GI50: 34.2 µM
  TGI: > 100 µM
SN12C renal
  GI50: 26.4 µM
  TGI: > 100 µM
T-47D breast
  GI50: 16.5 µM
  TGI: 90.5 µM

## CC(=O)CCCCO
786-0 renal
  TGI: > 100 µM
HCT-116 colon
  TGI: > 100 µM
HL-60(TB) leukemia
  TGI: > 100 µM
K-562 leukemia
  TGI: > 100 µM
KM12 colon
  TGI: > 100 µM
LOX IMVI melanoma
  TGI: > 100 µM
MALME-3M melanoma
  TGI: > 100 µM
SN12C renal
  TGI: > 100 µM
U251 CNS
  TGI: > 100 µM

## C=C1C(=O)O[C@H]2[C@H]1CC/C(COC(=O)NCCc1c[nH]c3ccc(OC)cc13)=C\CC[C@@]1(C)O[C@@H]21
786-0 renal
  GI50: 1.46 µM
  TGI: 3.47 µM
HCT-116 colon
  GI50: 1.46 µM
  TGI: 3.11 µM
K-562 leukemia
  GI50: 0.453 µM
  TGI: 3.29 µM
KM12 colon
  GI50: 6.49 µM
  TGI: 23.2 µM
LOX IMVI melanoma
  GI50: 1.32 µM
  TGI: 2.78 µM
MALME-3M melanoma
  GI50: 1.91 µM
  TGI: 3.9 µM
SN12C renal
  GI50: 1.81 µM
  TGI: 3.8 µM
T-47D breast
  GI50: 1.81 µM
  TGI: 4.53 µM
U251 CNS
  GI50: 4.3 µM
  TGI: 15.9 µM

## CO[C@@H]1CC(=O)C2(CC(=O)O[C@@H]2/C=C(\C)CCC=C(C)C)C[C@@H]1O (some centres undefined)
786-0 renal
  GI50: 0.761 µM
  TGI: 1.58 µM
HCT-116 colon
  GI50: 0.489 µM
  TGI: 1.14 µM
HL-60(TB) leukemia
  GI50: 0.409 µM
  TGI: 2.32 µM
K-562 leukemia
  GI50: 0.829 µM
  TGI: > 50 µM
KM12 colon
  GI50: 1.03 µM
  TGI: 3.97 µM
LOX IMVI melanoma
  GI50: 0.634 µM
  TGI: 1.57 µM
SN12C renal
  GI50: 0.705 µM
  TGI: 1.64 µM
T-47D breast
  GI50: 0.522 µM
  TGI: 1.26 µM
U251 CNS
  GI50: 0.672 µM
  TGI: 1.4 µM

## NC(N)=NNC(=O)CCCCCCCC(=O)NN=C(N)N
786-0 renal
  TGI: > 100 µM
HCT-116 colon
  TGI: > 100 µM
HL-60(TB) leukemia
  TGI: > 100 µM
K-562 leukemia
  TGI: > 100 µM
KM12 colon
  TGI: > 100 µM
LOX IMVI melanoma
  TGI: > 100 µM
MALME-3M melanoma
  TGI: > 100 µM
SN12C renal
  TGI: > 100 µM
U251 CNS
  TGI: > 100 µM

## Cc1ccc2c(c1)NC(=O)CC(c1ccccc1)=N2
786-0 renal
  TGI: > 100 µM
HCT-116 colon
  TGI: > 100 µM
K-562 leukemia
  TGI: 26.7 µM
KM12 colon
  TGI: > 100 µM
LOX IMVI melanoma
  TGI: > 100 µM
MALME-3M melanoma
  TGI: > 100 µM
SN12C renal
  TGI: > 100 µM
T-47D breast
  TGI: > 100 µM
U251 CNS
  TGI: > 100 µM

## CC(C)(C)C(=O)ON1N=NC2C3CC(OCc4ccccc4)(OCc4ccccc4)C(O3)C21 (centres undefined)
786-0 renal
  TGI: 36.4 µM
HL-60(TB) leukemia
  TGI: 19 µM
K-562 leukemia
  TGI: 37 µM
KM12 colon
  TGI: 55.4 µM
LOX IMVI melanoma
  TGI: 32.8 µM
MALME-3M melanoma
  TGI: 31.2 µM
SN12C renal
  TGI: 39.3 µM
U251 CNS
  TGI: 31.4 µM

## c1ccc(-c2nc(-c3ccccc3)c(-c3ccccc3)[nH]2)cc1
786-0 renal
  TGI: > 100 µM
HCT-116 colon
  TGI: > 100 µM
HL-60(TB) leukemia
  TGI: 36.9 µM
KM12 colon
  TGI: > 100 µM
LOX IMVI melanoma
  TGI: > 100 µM
MALME-3M melanoma
  TGI: > 100 µM
SN12C renal
  TGI: > 100 µM
T-47D breast
  TGI: > 100 µM
U251 CNS
  TGI: > 100 µM

## O=C(C(=O)N1CC2C=CC1CC2)c1c[nH]c2ccccc12 (centres undefined)
786-0 renal
  TGI: > 100 µM
HCT-116 colon
  TGI: > 100 µM
HL-60(TB) leukemia
  TGI: > 100 µM
K-562 leukemia
  TGI: > 100 µM
KM12 colon
  TGI: > 100 µM
LOX IMVI melanoma
  TGI: > 100 µM
MALME-3M melanoma
  TGI: > 100 µM
SN12C renal
  TGI: > 100 µM
U251 CNS
  TGI: > 100 µM
